Data published in ChEMBL document CHEMBL4622850, “Discovery and optimization of new oxadiazole substituted thiazole RORγt inverse agonists through a bioisosteric amide replacement approach” (Bioorg Med Chem Lett, 2020).
≈ marks a conversion by molar mass, not a printed value.

Tests used:
[1] = Solubility of compound by pH 2; assay type: physicochemical; conditions: buffer
[2] = Cmax in rat at 5 mg/kg, po; assay type: ADME, organism-based; set-up: dose 5 mg/kg, route oral; conditions: in vivo
[3] = AUC in rat at 5 mg/kg, po; assay type: ADME, organism-based; conditions: in vivo
[4] = Oral bioavailability in rat at 1 mg/kg; assay type: ADME, organism-based; conditions: in vivo
[5] = Solubility of compound by pH 7; assay type: physicochemical; conditions: buffer
[6] = target: T1, Nuclear receptor ROR-gamma (Mus musculus, UniProt P51450); assay: Inverse agonist activity at RORgammat in mouse whole blood assessed as reduction in IL-17a production; assay type: tissue-based
T1 sequence (P51450 whole entry): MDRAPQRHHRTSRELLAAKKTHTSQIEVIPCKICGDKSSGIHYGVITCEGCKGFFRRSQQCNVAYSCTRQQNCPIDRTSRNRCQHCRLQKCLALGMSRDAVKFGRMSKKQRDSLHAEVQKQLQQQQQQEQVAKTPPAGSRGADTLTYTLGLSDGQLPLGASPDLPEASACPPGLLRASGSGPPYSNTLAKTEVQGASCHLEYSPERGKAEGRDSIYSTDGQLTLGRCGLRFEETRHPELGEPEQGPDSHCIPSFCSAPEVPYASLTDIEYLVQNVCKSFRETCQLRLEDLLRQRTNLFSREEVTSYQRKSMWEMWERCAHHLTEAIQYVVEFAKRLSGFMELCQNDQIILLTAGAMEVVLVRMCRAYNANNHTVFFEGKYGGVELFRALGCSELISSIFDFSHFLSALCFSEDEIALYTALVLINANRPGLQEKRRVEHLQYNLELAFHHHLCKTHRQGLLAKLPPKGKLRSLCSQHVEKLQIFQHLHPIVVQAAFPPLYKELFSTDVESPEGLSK

[7] = Volume of distribution in rat at 1 mg/kg, iv; assay type: ADME, organism-based; conditions: in vivo
[8] = Clearance in rat at 1 mg/kg, iv; assay type: ADME, organism-based; conditions: in vivo
[9] = Metabolic stability in rat liver microsomes assessed as half life; assay type: ADME, Microsome
[10] = Half life in rat at 1 mg/kg, iv; assay type: ADME, organism-based; conditions: in vivo
[11] = target: T2, Nuclear receptor ROR-beta (Homo sapiens, UniProt Q92753); assay: Binding affinity to RORbeta (unknown origin) assessed as dissociation constant by thermal shift binding assay
T2 sequence (Q92753 whole entry): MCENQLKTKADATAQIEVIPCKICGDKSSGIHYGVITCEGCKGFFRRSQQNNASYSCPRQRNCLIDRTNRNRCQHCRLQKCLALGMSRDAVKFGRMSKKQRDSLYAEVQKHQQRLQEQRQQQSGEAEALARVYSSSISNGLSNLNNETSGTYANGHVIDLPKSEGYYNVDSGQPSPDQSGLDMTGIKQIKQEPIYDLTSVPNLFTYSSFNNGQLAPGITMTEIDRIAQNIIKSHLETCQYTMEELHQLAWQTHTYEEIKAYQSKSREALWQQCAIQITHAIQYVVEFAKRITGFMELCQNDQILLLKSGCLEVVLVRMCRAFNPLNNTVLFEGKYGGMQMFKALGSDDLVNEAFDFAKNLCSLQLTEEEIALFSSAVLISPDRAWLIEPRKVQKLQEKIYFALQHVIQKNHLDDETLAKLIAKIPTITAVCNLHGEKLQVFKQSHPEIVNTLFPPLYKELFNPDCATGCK

[12] = target: T3, Nuclear receptor subfamily 1 group I member 2 (Homo sapiens, UniProt O75469); assay: Activation of PXR (unknown origin) at 5 uM; assay type: ADME
T3 sequence (O75469 whole entry): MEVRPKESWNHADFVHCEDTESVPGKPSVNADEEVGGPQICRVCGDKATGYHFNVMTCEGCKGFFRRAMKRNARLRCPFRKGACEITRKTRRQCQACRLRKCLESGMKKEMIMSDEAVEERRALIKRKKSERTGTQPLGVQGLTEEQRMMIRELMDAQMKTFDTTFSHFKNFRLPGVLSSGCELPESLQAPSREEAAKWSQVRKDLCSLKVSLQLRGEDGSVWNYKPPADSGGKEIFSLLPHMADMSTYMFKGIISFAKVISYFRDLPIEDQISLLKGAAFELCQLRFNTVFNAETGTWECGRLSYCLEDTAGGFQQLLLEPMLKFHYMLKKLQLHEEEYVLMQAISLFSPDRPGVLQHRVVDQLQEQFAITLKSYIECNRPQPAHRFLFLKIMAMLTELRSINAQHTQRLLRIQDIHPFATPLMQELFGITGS

[13] = target: Cytochrome P450 2C19 (Homo sapiens, UniProt P33261); assay: Inhibition of CYP2C19 (unknown origin); assay type: ADME
Sequence of Cytochrome P450 2C19 (P33261 whole entry): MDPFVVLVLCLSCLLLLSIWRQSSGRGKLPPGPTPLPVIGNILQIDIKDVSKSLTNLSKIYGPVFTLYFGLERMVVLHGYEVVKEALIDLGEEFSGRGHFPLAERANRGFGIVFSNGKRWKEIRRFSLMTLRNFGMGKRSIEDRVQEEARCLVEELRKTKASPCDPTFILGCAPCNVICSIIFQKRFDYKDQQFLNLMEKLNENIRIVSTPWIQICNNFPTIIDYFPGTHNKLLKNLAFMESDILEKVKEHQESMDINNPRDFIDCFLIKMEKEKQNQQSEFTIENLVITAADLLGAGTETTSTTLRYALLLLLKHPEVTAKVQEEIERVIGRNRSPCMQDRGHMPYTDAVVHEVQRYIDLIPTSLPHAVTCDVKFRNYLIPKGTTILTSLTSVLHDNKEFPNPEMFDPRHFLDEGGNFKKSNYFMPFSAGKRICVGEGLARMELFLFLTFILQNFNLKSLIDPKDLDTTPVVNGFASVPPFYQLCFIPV

[14] = target: Cytochrome P450 2C9 (Homo sapiens, UniProt P11712); assay: Inhibition of CYP2C9 (unknown origin); assay type: ADME
Sequence of Cytochrome P450 2C9 (P11712 whole entry): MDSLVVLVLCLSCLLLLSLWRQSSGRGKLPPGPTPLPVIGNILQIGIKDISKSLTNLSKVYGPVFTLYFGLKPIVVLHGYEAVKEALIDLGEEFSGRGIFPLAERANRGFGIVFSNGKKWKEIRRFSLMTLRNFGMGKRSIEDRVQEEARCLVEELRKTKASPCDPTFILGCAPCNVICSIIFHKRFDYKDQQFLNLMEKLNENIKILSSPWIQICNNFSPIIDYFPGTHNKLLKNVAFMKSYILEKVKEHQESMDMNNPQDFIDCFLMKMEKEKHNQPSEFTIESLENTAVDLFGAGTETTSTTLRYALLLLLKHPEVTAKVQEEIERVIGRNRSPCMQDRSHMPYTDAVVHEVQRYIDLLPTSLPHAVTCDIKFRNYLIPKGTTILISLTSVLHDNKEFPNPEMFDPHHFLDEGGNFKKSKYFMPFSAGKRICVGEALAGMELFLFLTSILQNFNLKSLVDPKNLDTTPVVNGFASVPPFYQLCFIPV

| solubility [1] [µM] | solubility [5] [µM] | IC50 [6] [nM] | Compound | other results |
| --- | --- | --- | --- | --- |
| < 4 | 38 (≈ 24.4 µg/mL) | 790 | C[C@H](NS(=O)(=O)c1ccc(-c2sc(-c3noc(CC(C)(C)C(=O)O)n3)nc2CC2CCC2)c(Cl)c1Cl)C(F)(F)F |  |
| < 4 | < 4 |  | C[C@H](NS(=O)(=O)c1ccc(-c2sc(-c3cnc(CC(C)(C)C(=O)O)s3)nc2CC2CCC2)c(Cl)c1Cl)C(F)(F)F |  |
| < 4 | 268 (≈ 154 µg/mL) | 1870 | C[C@H](NS(=O)(=O)c1ccc(-c2sc(CC(C)(C)C(=O)O)nc2CC2CCC2)c(Cl)c1Cl)C(F)(F)F | Activity [12]: 33% |
| < 4 | 178 (≈ 105 µg/mL) |  | CC[C@H](NS(=O)(=O)c1ccc(-c2sc(CC(C)(C)C(=O)O)nc2CC2CCC2)c(Cl)c1Cl)C(F)(F)F | Activity [12]: 40% |
| < 4 | < 4 |  | C[C@H](NS(=O)(=O)c1ccc(-c2sc(-c3cc(CC(C)(C)C(=O)O)on3)nc2CC2CCC2)c(Cl)c1Cl)C(F)(F)F |  |

The remaining lines, values behind:

| Compound | solubility [1] [µM] | solubility [5] [µM] | IC50 [6] [nM] | other results |
| --- | --- | --- | --- | --- |
| CC(C)(C)NS(=O)(=O)c1ccc(-c2sc(C(=O)N[C@H]3C[C@H](C(=O)O)C3)nc2CC2CCCCC2)c2ccccc12 | < 1 | < 1 |  | Cmax [2]: 220 nM; AUC [3]: 302 ng·h/mL; bioavailability [4]: 20% |
| CC[C@H](NS(=O)(=O)c1ccc(-c2sc(-c3nnc(CC(C)(C)C(=O)O)o3)nc2CC2CCCC2)c(C(F)F)c1F)C(F)(F)F | < 4 | 69 (≈ 46.1 µg/mL) | 230 |  |
| C[C@H](NS(=O)(=O)c1ccc(-c2sc(-c3nnc(CC(C)(C)C(=O)O)o3)nc2CC2CCC2)c2ccccc12)C(F)(F)F | < 4 | 24 (≈ 14.9 µg/mL) |  | Vd [7]: 1.1 L/kg; clearance [8]: 6 mL/min/kg; Cmax [2]: 2300 nM; AUC [3]: 13100 ng·h/mL; bioavailability [4]: 96%; half-life [9]: > 3 h; half-life [10]: 3.1 h |
| C[C@H](NS(=O)(=O)c1ccc(-c2sc(-c3nnc([C@H]4C[C@H](C(=O)O)C4)o3)nc2CC2CCC2)c(Cl)c1Cl)C(F)(F)F | < 4 | 118 (≈ 75.5 µg/mL) |  |  |
| CC(C)(O)CNC(=O)c1nc(CC2CCCCC2)c(-c2ccc(S(=O)(=O)NC(C)(C)C)c3ccccc23)s1 | < 4 | < 4 |  |  |
| CC[C@H](NS(=O)(=O)c1ccc(-c2sc(-c3nnc(CC(C)(C)O)o3)nc2C(=O)N2CCC(F)CC2)c(Cl)c1Cl)C(F)(F)F | 41 (≈ 28.2 µg/mL) | 99 (≈ 68.2 µg/mL) | 120 |  |
| CC[C@H](NS(=O)(=O)c1ccc(-c2sc(-c3nnc(CC(C)(C)C(=O)O)o3)nc2CC2CCCCC2)c(C(F)F)c1F)C(F)(F)F | < 4 | < 4 | 1540 |  |
| CC(C)(C)NS(=O)(=O)c1ccc(-c2sc(-c3nnc(C(C)(C)O)o3)nc2CC2CCCCC2)c2ccccc12 | < 1 | < 1 |  |  |
| C[C@H](NS(=O)(=O)c1ccc(-c2sc(-c3noc(C(C)(C)O)n3)nc2C(=O)N2CCC(F)CC2)c(Cl)c1Cl)C(F)(F)F | 9.7 (≈ 6.41 µg/mL) | 6.4 (≈ 4.23 µg/mL) |  | Kd [11]: > 91000 nM |
| C[C@H](NS(=O)(=O)c1ccc(-c2sc(C(=O)NCC(C)(C)O)nc2CC2CCC2)c(Cl)c1Cl)C(F)(F)F |  |  |  | half-life [9]: 0.617 h |
| C[C@H](NS(=O)(=O)c1ccc(-c2sc(-c3nnc(CC(C)(C)C(=O)O)o3)nc2C(=O)N2CCCC[C@@H]2C)c(C(F)F)c1F)C(F)(F)F | < 4 | 398 (≈ 278 µg/mL) |  |  |
| C[C@H](NS(=O)(=O)c1ccc(-c2sc(-c3cc(CC(C)(C)C(=O)O)ncn3)nc2CC2CCC2)c(Cl)c1Cl)C(F)(F)F |  |  |  | IC50 [13]: 790 nM |
| C[C@H](NS(=O)(=O)c1ccc(-c2sc(CC(C)(C)C(=O)O)nc2CC2CCC2)c(C(F)(F)F)c1)C(F)(F)F |  |  |  | Activity [12]: 43% |
| CCN(CC)C(=O)c1nc(-c2nnc(C(C)(C)O)o2)sc1-c1ccc(S(=O)(=O)N[C@@H](C)C(F)(F)F)c(Cl)c1Cl |  | 55 (≈ 34.7 µg/mL) | 100 | Kd [11]: > 60000 nM; half-life [9]: 1.58 h |
| CC[C@H](NS(=O)(=O)c1ccc(-c2sc(CC(C)(C)C(=O)O)nc2CC2CCC2)c(Cl)c1)C(F)(F)F |  |  |  | Activity [12]: 2% |
| C[C@H](NS(=O)(=O)c1ccc(-c2sc(-c3nnc(CC(C)(C)C(=O)O)o3)nc2Cc2ccc(F)cc2)c(C(F)F)c1F)C(F)(F)F | < 4 | 57 (≈ 38.8 µg/mL) |  |  |
| C[C@H](NS(=O)(=O)c1ccc(-c2sc(-c3nnc(CC(C)(C)C(=O)O)s3)nc2CC2CCC2)c(Cl)c1Cl)C(F)(F)F |  |  |  | IC50 [14]: 900 nM |
| C[C@H](NS(=O)(=O)c1ccc(-c2sc(-c3nnc(CC(C)(C)C(=O)O)o3)nc2CN2CCCC(F)(F)C2)c(C(F)F)c1F)C(F)(F)F | 54 (≈ 38.1 µg/mL) | 182 (≈ 128 µg/mL) | 448 |  |
| C[C@H](NS(=O)(=O)c1ccc(-c2sc(-c3nnc(C(C)(C)O)o3)nc2C(=O)N2CCC(F)CC2)c(Cl)c1Cl)C(F)(F)F |  | 165 (≈ 109 µg/mL) |  | Kd [11]: > 50000 nM |
| COC(C)(C)Cc1nc(-c2nnc(CC(C)(C)C(=O)O)o2)sc1-c1ccc(S(=O)(=O)N[C@@H](C)C(F)(F)F)c(F)c1C(F)F | < 4 | 363 (≈ 239 µg/mL) | 9000 |  |
